Experimental data: article PMC6814258 (Pharmaceutical research, 2019)
Where a name gives a salt, the structure may show the parent alone.

Target: Nav1.8 (Homo sapiens, UniProt Q9Y5Y9)
Assay: Nav1.8 FLIPR HTS
Type: cell-based
Conditions: HEK293, read-out: Average percent inhibition at 10 μM (Nav1.8)

Nav1.8, sequence (Q9Y5Y9 whole entry): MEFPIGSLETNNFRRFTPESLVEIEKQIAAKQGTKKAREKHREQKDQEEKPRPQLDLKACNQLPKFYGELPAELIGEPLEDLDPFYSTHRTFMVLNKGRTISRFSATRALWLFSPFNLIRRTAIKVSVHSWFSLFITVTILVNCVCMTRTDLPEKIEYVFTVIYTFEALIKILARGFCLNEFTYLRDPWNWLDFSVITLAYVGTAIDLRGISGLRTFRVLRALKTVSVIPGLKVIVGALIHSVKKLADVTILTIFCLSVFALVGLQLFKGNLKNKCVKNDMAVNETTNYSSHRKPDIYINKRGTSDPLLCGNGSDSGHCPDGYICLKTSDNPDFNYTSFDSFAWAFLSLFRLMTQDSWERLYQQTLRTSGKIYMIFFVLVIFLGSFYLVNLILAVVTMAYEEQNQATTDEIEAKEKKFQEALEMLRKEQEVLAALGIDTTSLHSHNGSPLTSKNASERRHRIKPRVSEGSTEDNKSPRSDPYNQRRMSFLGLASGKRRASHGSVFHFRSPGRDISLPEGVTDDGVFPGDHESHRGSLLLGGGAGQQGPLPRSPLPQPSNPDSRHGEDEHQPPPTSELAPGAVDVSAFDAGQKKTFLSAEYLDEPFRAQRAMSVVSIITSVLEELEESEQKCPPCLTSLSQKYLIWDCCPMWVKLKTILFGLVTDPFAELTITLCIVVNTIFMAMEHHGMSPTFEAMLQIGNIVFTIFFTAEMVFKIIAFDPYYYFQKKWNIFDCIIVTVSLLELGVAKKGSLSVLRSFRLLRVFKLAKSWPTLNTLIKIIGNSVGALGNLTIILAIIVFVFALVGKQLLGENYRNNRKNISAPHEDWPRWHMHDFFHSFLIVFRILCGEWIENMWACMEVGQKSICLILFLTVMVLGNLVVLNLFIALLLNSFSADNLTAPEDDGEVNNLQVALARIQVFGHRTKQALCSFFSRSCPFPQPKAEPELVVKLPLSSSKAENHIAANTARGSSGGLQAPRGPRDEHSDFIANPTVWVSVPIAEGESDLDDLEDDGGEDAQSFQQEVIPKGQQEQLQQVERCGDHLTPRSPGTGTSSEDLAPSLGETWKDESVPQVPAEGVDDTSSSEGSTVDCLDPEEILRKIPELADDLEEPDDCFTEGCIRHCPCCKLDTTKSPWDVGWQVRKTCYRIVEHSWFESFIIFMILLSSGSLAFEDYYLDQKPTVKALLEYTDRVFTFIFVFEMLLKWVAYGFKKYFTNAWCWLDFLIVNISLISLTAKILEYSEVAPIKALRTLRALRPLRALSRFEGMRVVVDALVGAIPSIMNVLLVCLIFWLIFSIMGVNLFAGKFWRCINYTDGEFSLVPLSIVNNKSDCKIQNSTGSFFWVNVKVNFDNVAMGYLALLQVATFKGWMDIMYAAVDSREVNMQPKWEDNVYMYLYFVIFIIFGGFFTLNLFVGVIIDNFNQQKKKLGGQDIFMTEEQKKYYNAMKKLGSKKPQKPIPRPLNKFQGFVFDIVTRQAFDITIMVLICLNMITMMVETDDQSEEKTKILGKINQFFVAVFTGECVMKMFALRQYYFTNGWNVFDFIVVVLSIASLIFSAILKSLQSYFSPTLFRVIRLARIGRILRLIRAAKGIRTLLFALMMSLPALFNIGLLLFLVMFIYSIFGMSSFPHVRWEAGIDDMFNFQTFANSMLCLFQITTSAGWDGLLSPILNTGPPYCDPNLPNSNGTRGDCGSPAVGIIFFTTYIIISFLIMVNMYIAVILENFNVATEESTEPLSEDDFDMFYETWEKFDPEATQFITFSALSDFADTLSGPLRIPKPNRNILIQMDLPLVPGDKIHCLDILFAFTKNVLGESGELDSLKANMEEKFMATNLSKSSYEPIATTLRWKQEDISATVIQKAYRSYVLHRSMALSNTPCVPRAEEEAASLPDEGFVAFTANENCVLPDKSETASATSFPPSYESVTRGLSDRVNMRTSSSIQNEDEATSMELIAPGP

Row | Compound | inhibition at 10 µM [%]
1 | CC(NCCC(c1ccccc1)c1ccccc1)c1ccccc1 (stereo not shown) [Fendiline hydrochloride] | 91.3
2 | COc1ccccc1OCCNCC(O)COc1cccc2[nH]c3ccccc3c12 (stereo not shown) [Carvedilol] | 104
3 | CN1CCN(CCCN2c3ccccc3Sc3ccc(C(F)(F)F)cc32)CC1 [Trifluoperazine dihydrochloride] | 79.1
4 | CN(C)CCC=C1c2ccccc2COc2ccccc21 [Doxepin hydrochloride] | 88.7
5 | CC(COc1ccccc1)N(CCCl)Cc1ccccc1 (stereo not shown) [Phenoxybenzamine hydrochloride] | 86.1
6 | CCN(CC)CCOC(=O)C(c1ccccc1)C1CCCCC1 (stereo not shown) [Drofenine hydrochloride] | 76.8
7 | CN(C)CCCN1c2ccccc2Sc2ccccc21 [Promazine hydrochloride] | 88.1
8 | CCCCNc1ccc(C(=O)OCCOCCOCCOCCOCCOCCOCCOCCOCCOC)cc1 [Benzonatate] | 79.9
9 | CCCCOc1cc(C(=O)NCCN(CC)CC)c2ccccc2n1 [Dibucaine] | 79.4
10 | C[C@]12CC[C@@H]3c4ccc(O)cc4CC[C@H]3[C@@H]1CCC2=O [Estrone] | 78.2
11 | Cc1cccc(C)c1NC(=O)CN1CCN(CCCC(c2ccc(F)cc2)c2ccc(F)cc2)CC1 [Lidoflazine] | 92.7
12 | CCN(CC)CC#CCOC(=O)C(O)(c1ccccc1)C1CCCCC1 (stereo not shown) [Oxybutynin chloride] | 77.3
13 | O=c1cc(-c2ccc(O)c(O)c2)oc2cc(O)cc(O)c12 [Luteolin] | 86.2
14 | CC(C)(C)NC(=O)[C@@H]1C[C@@H]2CCCC[C@@H]2CN1C[C@@H](O)[C@H](Cc1ccccc1)NC(=O)[C@H](CC(N)=O)NC(=O)c1ccc2ccccc2n1 [Saquinavir mesylate] | 92.8
15 | CN(C(=O)CN(CCO)CC(=O)N(C)C(C)(C)Cc1ccccc1)C(C)(C)Cc1ccccc1 [Oxethazaine] | 92.9
16 | C[C@H](N)[C@H](O)c1ccc(O)c(O)c1 [Levonordefrin] | 107
17 | COc1ccc(C(=O)c2ccccc2O)c(O)c1 [Dioxybenzone] | 100
18 | O=c1[nH]c2ccccc2n1C1CCN(CCCC(c2ccc(F)cc2)c2ccc(F)cc2)CC1 [Pimozide] | 101
19 | CN(C)CCCOc1nn(Cc2ccccc2)c2ccccc12 [Benzydamine hydrochloride] | 83.6
20 | CCOC(=O)C1=C[C@]2(CC)CCCN3CCc4c(n1c1ccccc41)[C@@H]32 [Vinpocetine] | 93.4

Row | Compound | inhibition at 10 µM [%]
21 | CCN(CC)C(C)CN1c2ccccc2Sc2ccccc21 (stereo not shown) [Ethopropazine hydrochloride] | 85.5
22 | CCCCOc1ccc(C(=O)CCN2CCCCC2)cc1 [Dyclonine hydrochloride] | 99
23 | CNCCCC1c2ccccc2C=Cc2ccccc21 [Protriptyline hydrochloride] | 80
24 | CC(CN1c2ccccc2Sc2ccccc21)N(C)C (stereo not shown) [Promethazine hydrochloride] | 78.5
25 | Cc1cccc(C)c1OCC(=O)N[C@@H](Cc1ccccc1)[C@@H](O)C[C@H](Cc1ccccc1)NC(=O)[C@H](C(C)C)N1CCCNC1=O [Lopinavir] | 76.8
26 | CC(C)(C)NC[C@H](O)c1ccc(O)c(CO)c1 [Levalbuterol hydrochloride] | 85.3
27 | CC(C)(C)NCC(O)c1ccc(O)c(CO)c1 (stereo not shown) [Salbutamol] | 78
28 | CCOC(=O)Nc1ccc2c(c1)N(C(=O)CCN1CCOCC1)c1ccccc1S2 [Moricizine hydrochloride] | 75.8
29 | O=C(CCCN1CCC(n2c(O)nc3ccccc32)CC1)c1ccc(F)cc1 [Benperidol] | 84.2
30 | OC(CNCC(O)C1CCc2cc(F)ccc2O1)C1CCc2cc(F)ccc2O1 (stereo not shown) [Nebivolol hydrochloride] | 82.7
31 | CCN(CC)CCOC(=O)C(c1ccccc1)c1ccccc1 [Adiphenine hydrochloride] | 90.4
32 | O=C1[C@H]2CCCC[C@H]2C(=O)N1CCCCN1CCN(c2nsc3ccccc23)CC1 [Perospirone] | 89.7
33 | O=C(Nc1ccccc1)OCC(CN1CCCCC1)OC(=O)Nc1ccccc1 (stereo not shown) [Diperodon hydrochloride] | 92.2
34 | CCCCc1cc2ccccc2c(OCCN(C)C)n1 [Dimethisoquin hydrochloride] | 75.5
35 | CC(C)COCC(CN(Cc1ccccc1)c1ccccc1)N1CCCC1 (stereo not shown) [Bepridil hydrochloride] | 89.1
36 | CCCCOc1cc(C(=O)OCCN(CC)CC)ccc1N [Benoxinate hydrochloride] | 83.7
37 | CNCCC=C1c2ccccc2CCc2ccccc21 [Nortriptyline hydrochloride] | 85.9
38 | O=C(CCCN1CC=C(n2c(=O)[nH]c3ccccc32)CC1)c1ccc(F)cc1 [Droperidol] | 87.6
39 | CS(=O)(=O)c1ccc([C@@H](O)[C@@H](CF)NC(=O)C(Cl)Cl)cc1 [Florfenicol] | 77.5
40 | COc1cc2nc(N3CCN(C(=O)C4COc5ccccc5O4)CC3)nc(N)c2cc1OC (stereo not shown) [Doxazosin mesylate] | 76.1

Row | Compound | inhibition at 10 µM [%]
41 | Fc1ccc(C(c2ccc(F)cc2)N2CCN(C/C=C/c3ccccc3)CC2)cc1 [Flunarizine dihydrochloride] | 96.6
42 | CO[C@]12C[C@@H](COC(=O)c3cncc(Br)c3)CN(C)[C@@H]1Cc1cn(C)c3cccc2c13 [Nicergoline] | 82.3
43 | CN(C/C=C/c1ccccc1)Cc1cccc2ccccc12 [Naftifine hydrochloride] | 96.1
44 | [H]/N=C(/NCCCCC)N/N=C/c1c[nH]c2ccc(OC)cc12 [Tegaserod maleate] | 98.3
45 | CCCCCCNC(=O)n1cc(F)c(=O)[nH]c1=O [Carmofur] | 124
46 | CN1CCC(=C2c3ccccc3Sc3ccccc32)CC1 [Pimethixene maleate] | 88.5
47 | OCc1cc(C(O)CNCCCCCCOCCCCc2ccccc2)ccc1O (stereo not shown) [Salmeterol] | 99.6
48 | C1CCC(C(CC2CCCCN2)C2CCCCC2)CC1 (stereo not shown) [Perhexiline maleate] | 79.2
49 | CCC(COC(=O)c1cc(OC)c(OC)c(OC)c1)(c1ccccc1)N(C)C (stereo not shown) [Trimebutine] | 88.7
50 | CCCOc1ccc(C(=O)OCCN(CC)CC)cc1N [Proparacaine hydrochloride] | 103
51 | CN(C)CC/C=C1/c2ccccc2Sc2ccc(Cl)cc21 [Chlorprothixene hydrochloride] | 77.4
52 | O=C(CCCN1CCC2(CC1)C(=O)NCN2c1ccccc1)c1ccc(F)cc1 [Spiperone] | 82
53 | CCC(=O)O[C@@](Cc1ccccc1)(c1ccccc1)[C@@H](C)CN(C)C [Levopropoxyphene napsylate] | 95.1
54 | COc1ccc(-c2cc(=S)ss2)cc1 [Anethole-trithione] | 78.5
55 | CC(Cc1ccc(O)cc1)NCC(O)c1cc(O)cc(O)c1 (stereo not shown) [Fenoterol hydrobromide] | 78.3
56 | CCc1nn(CCCN2CCN(c3cccc(Cl)c3)CC2)c(=O)n1CCOc1ccccc1 [Nefazodone hydrochloride] | 88.5
57 | NC(=O)OCC(COC(N)=O)c1ccccc1 [Felbamate] | 78.6
58 | CCCCCCCCNC(C)C(O)c1ccc(SC(C)C)cc1 (stereo not shown) [Suloctidil] | 93.8
